For one compound, CC50 results are on record in ChEMBL document CHEMBL1147402, “Synthesis and antitumour activity of pyrene-linked pyrrolo [2,1-c]benzodiazepine hybrids” (Bioorg Med Chem Lett, 2004).

What all share (assay type): functional
Holding throughout (settings): Homo sapiens, read-out: LC50 (the source's name)

The test system of one assay is A498. Description: In vitro cytotoxicity against […] cell line.
In the next assay the test system is DU-145. Kind of assay: In vitro cytotoxicity against prostate DU-145 cell line.
In a further assay the test system is HCC 2998. Description: In vitro cytotoxicity against colon […] cell line.
Another assay concerns M14. Description: In vitro cytotoxicity against melanoma M14 cell line.
The next assay has as its system NCI-H226. Description: In vitro cytotoxicity against non-small cell lung NCI-H226 cell line.
For a further assay, the system named is SF-539. Description: In vitro cytotoxicity against CNS SF-539 cell line.
The test system of the next assay is SNB-19. Description: In vitro cytotoxicity against CNS SNB-19 cell line.
The subject of the next assay is SR. Description: In vitro cytotoxicity against leukemia SR cell line.

With `COc1cc2c(cc1OCCCC(=O)Nc1cc3cccc4ccc5cccc1c5c43)N=C[C@@H]1CCCN1C2=O`, the CC50 in the assay on A498 was 40 nM; in the assay with DU-145, 240 nM; in the assay with HCC 2998 it was 10 nM; with M14, 50 nM; in the assay with NCI-H226, less than 10 nM; in the assay with SF-539, 180 nM. The CC50 in the assay with SNB-19 was determined as 420 nM; in the assay on SR it was 50 nM.
